test: Dissociation constant, pKa of the compound; assay type: physicochemical

pKa | Structure (SMILES)
6.9 | CC(C(=O)O)c1ccc2oc(-c3ccc(Cl)cc3)nc2c1 (stereo not drawn) [BENOXAPROFEN]
4.7 | Cc1cc(CC(=O)O)n(C)c1C(=O)c1ccc(Cl)cc1 [ZOMEPIRAC]
4 | CC(C(=O)O)c1ccc(C(=O)c2cccs2)cc1 (stereo not drawn) [SUPROFEN]
4.5 | CC1=C(CC(=O)O)c2cc(F)ccc2/C1=C\c1ccc([S+](C)[O-])cc1 (stereo not drawn)
4.7 | CC(C(=O)O)c1ccc2c(c1)[nH]c1ccc(Cl)cc12 (stereo not drawn) [CARPROFEN]
4.3 | O=C(O)CCc1nc(-c2ccccc2)c(-c2ccccc2)o1 [OXAPROZIN]
4.7 | CCCCC1C(=O)N(c2ccccc2)N(c2ccc(O)cc2)C1=O (stereo not drawn) [OXYPHENBUTAZONE ANHYDROUS]
4.2 | Cc1cccc(Nc2ccccc2C(=O)O)c1C [MEFENAMIC ACID]

Reference: ChEMBL document CHEMBL2069217, “Self-organizing molecular field analysis of NSAIDs: assessment of pharmacokinetic and physicochemical properties using 3D-QSPkR approach” (Eur J Med Chem, 2012)
